Measurements from PMC6792352, “Limited Chemical Structural Diversity Found to Modulate Thyroid Hormone Receptor in the Tox21 Chemical Library” (Environmental Health Perspectives, 2019).
Where a name gives a salt, the structure may show the parent alone.

Test: in vitro
Settings: rat, gh3-tre-luc cells

| Compound | CC50 at 24 h (AC50 (uM) modified / 1000) [µM] | also measured |
| --- | --- | --- |
| CCOC(=S)SSC(=S)OCC [Bis(ethylxanthogen)] | > 90 | – |
| O=C1CCCC(=O)C1 [1,3-Cyclohexanedione] | > 90 | – |
| COC(C=C(C)CCC=C(C)C)OC [1,1-Dimethoxy-3,7-dimethylocta-2,6-diene] | > 90 | – |
| C=CCS(=O)(=O)O [2-Propene-1-sulfonic acid, sodium salt] | > 90 | – |
| O=C(O)CCCCCCCCCCC(=O)O [Dodecanedioic acid] | > 90 | – |
| Nc1ccc(S(=O)(=O)O)cc1 [Sodium sulfanilate] | > 90 | – |
| O=C(O)COc1cc(Cl)c(Cl)cc1Cl [2,4,5-Trichlorophenoxyacetic acid] | > 90 | – |
| C=COCCCCO [4-(Ethenyloxy)butan-1-ol] | > 90 | – |
| CN(C)c1ccccc1 [N,N-Dimethylaniline] | – | CC50 at 24 h (AC50 (uM) modified / 1000, Tox21_110001=Tox21_201813, viability, 1 nM T3 present, 24 h): > 90 µM; CC50 at 24 h (AC50 (uM) modified / 1000, Tox21_110001=Tox21_300036, viability, 1 nM T3 present, 24 h): > 100 µM |
| O=c1c(-c2ccc(O)cc2)coc2cc(O)ccc12 [Daidzein] | > 90 | – |
| CNC(=O)c1ccccc1Sc1ccc2c(/C=C/c3ccccn3)n[nH]c2c1 [Axitinib] | > 50 | – |
| CCC(C)C(C)=O (centres unmarked) [3-Methyl-2-pentanone] | > 90 | – |
| OCCC1CCCCN1 (centres unmarked) [2-?Piperidineethanol] | > 90 | – |
| CNCC(O)c1ccc(OC(=O)C(C)(C)C)c(OC(=O)C(C)(C)C)c1 (centres unmarked) [Dipivefrin hydrochloride] | 10.3 | – |
| O=[N+]([O-])c1cccc(Cl)c1 [1-Chloro-3-nitrobenzene] | > 90 | – |
| Cn1c(NCCN(CCO)CCCc2ccc([N+](=O)[O-])cc2)cc(=O)n(C)c1=O [Nifekalant hydrochloride] | > 50 | – |
| O=C(O)P(=O)(O)O [Foscarnet trisodium] | > 50 | – |
| NC(=S)NS(=O)(=O)c1ccc(N)cc1 [Sulfathiourea] | > 50 | – |
| O=[N+]([O-])c1ccccc1 [Nitrobenzene] | > 90 | – |
| CC(=O)CC(C)=O [2,4-Pentanedione] | > 100 | – |
| O=C(O)Cc1ccccc1Nc1c(Cl)cccc1Cl [Diclofenac sodium] | > 90 | – |
| CCOC(=O)NC(=S)Nc1ccccc1NC(=S)NC(=O)OCC [Thiophanate] | > 90 | – |
| CC(C)=CCl [2,2-Dimethylvinyl chloride] | > 90 | – |
| OCCN(CCO)c1ccccc1 [N-Phenyldiethanolamine] | > 90 | – |
| O=c1c2ccccc2nnn1CCl [3-(Chloromethyl)-1,2,3-benzotriazin-4(3H)-one] | > 90 | – |
| ClCCBr [1-Chloro-2-bromoethane] | – | CC50 at 24 h (AC50 (uM) modified / 1000, Tox21_110001=Tox21_201726, viability, 1 nM T3 present, 24 h): > 90 µM |
| C[C@@H]1CN(c2c(F)c(N)c3c(=O)c(C(=O)O)cn(C4CC4)c3c2F)C[C@H](C)N1 [Sparfloxacin] | > 50 | – |

| Compound | CC50 at 24 h (AC50 (uM) modified / 1000) [µM] | also measured |
| --- | --- | --- |
| c1ccccc1 [Benzene] | > 90 | – |
| CCC1(C2=NCCN2)Cc2ccccc2O1 (centres unmarked) [Efaroxan] | > 50 | – |
| CCCCCSCCCCC [Pentyl sulfide] | > 90 | – |
| CC[C@@H](C(=O)[C@@H](C)[C@@H](O)[C@H](C)[C@@H]1O[C@@H]([C@@H](CC)C(=O)O)CC[C@@H]1C)[C@H]1O[C@]2(C=C[C@@H](O)[C@]3(CC[C@@](C)([C@H]4CC[C@](O)(CC)[C@H](C)O4)O3)O2)[C@H](C)C[C@@H]1C [Salinomycin sodium] | 0.823 | – |
| CCC/C=C(/C=O)CC [2-Ethyl-2-hexenal] | > 90 | – |
| CN(C)CC/C=C1\c2ccccc2CSc2ccccc21 [Dothiepin hydrochloride] | 6.1 | – |
| CN(C)/C=N/c1c(I)cc(I)c(CCC(=O)O)c1I [Ipodate sodium] | > 50 | – |
| N#CCN(CC#N)CCN(CC#N)CC#N [(Ethylenedinitrilo)tetraacetonitrile] | > 90 | – |
| CC/C=C\CC1=C(C)CCC1=O [Jasmone] | > 90 | – |
| COc1c2c(cc3c1OCO3)CCN(C)C2 [Hydrocotarnine hydrobromide] | > 20 | – |
| COc1cc(N)ccc1C [3-Methoxy-4-methylaniline] | > 90 | – |
| CCC(C)c1cc([N+](=O)[O-])cc([N+](=O)[O-])c1OC(=O)OC(C)C (centres unmarked) [Dinobuton] | 42.5 | – |
| O=C(O)CCCCCCCCC(=O)O [Decanedioic acid] | > 90 | – |
| CCN1CCC[C@H]1CNC(=O)c1cc(S(N)(=O)=O)ccc1OC [Levosulpiride] | > 50 | – |
| COc1ccccc1[N+](=O)[O-] [1-Methoxy-2-nitrobenzene] | > 90 | – |
| O=C(O)CC(C(=O)O)S(=O)(=O)O (centres unmarked) [Sulfosuccinic acid] | > 90 | – |
| C=C[Si]1(C)O[Si](C)(C=C)O[Si](C)(C=C)O[Si](C)(C=C)O1 (centres unmarked) [1,3,5,7-Tetramethyl-1,3,5,7-tetravinylcyclotetrasiloxane] | – | CC50 at 24 h (AC50 (uM) modified / 1000, Tox21_110001=Tox21_301527, viability, 1 nM T3 present, 24 h): > 90 µM |
| O=c1[nH]c2cc(C(F)(F)F)c(N3CCOCC3)cc2n(CP(=O)(O)O)c1=O [Fanapanel] | > 50 | – |
| NC12CC3CC(CC(C3)C1)C2 [Amantadine] | 36.1 | – |
| COc1cc(C)c(/C=C/C(C)=C/C=C/C(C)=C/C(=O)O)c(C)c1C [Acitretin] | > 50 | – |
| CCCCCCCCCCCCOCCCN [Laurixamine] | > 50 | – |
| c1ccc2c(c1)Oc1ccccc1O2 [Dibenzo-p-dioxin] | – | CC50 at 24 h (AC50 (uM) modified / 1000, Tox21_110001=Tox21_202045, viability, 1 nM T3 present, 24 h): > 90 µM |
| CC(=O)c1ccc([N+](=O)[O-])cc1 [4-Nitroacetophenone] | > 90 | – |
| FC(F)(F)C(=NOCC1OCCO1)c1ccc(Cl)cc1 [Fluxofenim] | > 90 | – |
| CC(=O)Nc1ccc(N)cc1 [4-Aminoacetanilide] | > 90 | – |
| O=c1oc2cc(O)ccc2s1 [Thioxolone] | > 50 | – |
| CC(O)Cn1cnc2c1c(=O)n(C)c(=O)n2C (centres unmarked) [Proxyphylline] | > 20 | – |

| Compound | CC50 at 24 h (AC50 (uM) modified / 1000) [µM] | also measured |
| --- | --- | --- |
| Nc1ccc(C(=O)O)c(O)c1 [Sodium 4-aminosalicylate] | > 50 | – |
| CCC#N [Propionitrile] | > 100 | – |
| O=C(O)c1ccc(O)cc1O [2,4-Dihydroxybenzoic acid] | > 90 | – |
| COc1ccc(-c2coc3cc(O)cc(O)c3c2=O)cc1 [Biochanin A] | > 90 | – |
| CN(C(=O)c1c(O)c2ccccc2n(C)c1=O)c1ccccc1 [Roquinimex] | > 50 | – |
| CSc1ccc(C=O)cc1 [4-(Methylthio)benzaldehyde] | > 90 | – |
| OCCCl [2-Chloroethanol] | – | CC50 at 24 h (AC50 (uM) modified / 1000, Tox21_110001=Tox21_300043, viability, 1 nM T3 present, 24 h): > 90 µM |
| CCCCC(CC)COCCO (centres unmarked) [2-(2-Ethylhexyloxy)ethanol] | > 90 | – |
| O=C1Cc2ccccc2N1c1c(Cl)cccc1Cl [1-(2,6-Dichlorophenyl)-2-indolinone] | > 90 | – |
| CCOP(=S)(OCC)SCSC(C)(C)C [Terbufos] | – | CC50 at 24 h (AC50 (uM) modified / 1000, Tox21_110001=Tox21_201634, viability, 1 nM T3 present, 24 h): > 90 µM |
| CN1CCc2cc(Cl)c(O)cc2[C@H]2c3ccccc3CC[C@@H]21 [ecopipam] | 17.4 | – |
| CN/C(=C\[N+](=O)[O-])NCCSCc1ccc(CN(C)C)o1 [Ranitidine] | > 90 | – |
| COc1ccc(C(c2ccc(OC)cc2)C(Cl)(Cl)Cl)cc1 [Methoxychlor] | – | CC50 at 24 h (AC50 (uM) modified / 1000, Tox21_110001=Tox21_400075, viability, 1 nM T3 present, 24 h): 76.1 µM |
| N#CC(Cl)Cl [Dichloroacetonitrile] | 72.9 | – |
| O=c1c(O)c(-c2ccc(O)cc2O)oc2cc(O)cc(O)c12 [Morin hydrate] | > 90 | – |
| CC1(O)CCC(C(C)(C)O)CC1 (centres unmarked) [Terpin] | > 50 | – |
| O=c1[nH]c(=O)n([C@H]2C[C@H](O)[C@@H](CO)O2)cc1Br [5-Bromo-2'-deoxyuridine] | > 90 | – |
| Cc1cc(Cl)c(C)cc1Cl [1,4-Dichloro-2,5-dimethylbenzene] | > 90 | – |
| COc1ccccc1OCC(O)CN1CCN(CC(=O)Nc2c(C)cccc2C)CC1 (centres unmarked) [Ranolazine] | > 50 | – |
| CC(=O)C=Cc1ccco1 [Furfural acetone] | > 100 | – |
| CCC1(C)NC(=O)NC1=O (centres unmarked) [5-Ethyl-5-methylhydantoin] | > 90 | – |
| OC[C@@H](O)[C@H](O)[C@@H](O)[C@@H](O)CO [L-Glucitol] | > 90 | – |
| CN1[C@@H]2CC[C@H]1CC(NC(=O)n1c(=O)[nH]c3ccccc31)C2 (some centres unmarked) [Itasetron] | > 50 | – |
| CCCCCCCCCCCCCCCC(=O)OC [Methyl hexadecanoate] | > 30 | – |
| COc1cc2nc(N3CCN(C(=O)C4CCCO4)CC3)nc(N)c2cc1OC (centres unmarked) [Terazosin hydrochloride] | > 50 | – |
